Measured values reported in ChEMBL document CHEMBL4665917, “Optimization of Versatile Oxindoles as Selective PI3Kδ Inhibitors” (ACS Med Chem Lett, 2020).
In brackets after ≈: the same amount, converted by molar mass.

Legend:
[1] = Half life in Wistar-Han rat at 0.5 mg/kg, iv or 1 mg/kg, po; format: ADME, organism-based; conditions: in vivo
[2] = Half life in Beagle dog at 0.5 mg/kg, iv or 1 mg/kg, po; format: ADME, organism-based, Canis lupus familiaris; conditions: in vivo
[3] = Apparent permeability in pig LLC-PK1 cells; format: ADME, cell-based, Sus scrofa
[4] = Solubility of the compound at pH 7; format: physicochemical; conditions: buffer
[5] = Clearance in Wistar-Han rat at 0.5 mg/kg, iv or 1 mg/kg, po; format: ADME, organism-based; conditions: in vivo
[6] = Intrinsic clearance in Wistar-Han rat at 0.5 mg/kg, iv or 1 mg/kg, po; format: ADME, organism-based; conditions: in vivo
[7] = Volume of distribution in Wistar-Han rat at 0.5 mg/kg, iv or 1 mg/kg, po; format: ADME, organism-based; conditions: in vivo
[8] = Unbound volume of distribution in Wistar-Han rat at 0.5 mg/kg, iv or 1 mg/kg, po; format: ADME, organism-based; conditions: in vivo
[9] = Oral bioavailability in Wistar-Han rat at 1 mg/kg; format: ADME, organism-based; conditions: in vivo
[10] = Clearance in Beagle dog at 0.5 mg/kg, iv or 1 mg/kg, po; format: ADME, organism-based, Canis lupus familiaris; conditions: in vivo
[11] = Volume of distribution in Beagle dog at 0.5 mg/kg, iv or 1 mg/kg, po; format: ADME, organism-based, Canis lupus familiaris; conditions: in vivo
[12] = Unbound volume of distribution in Beagle dog at 0.5 mg/kg, iv or 1 mg/kg, po; format: ADME, organism-based, Canis lupus familiaris; conditions: in vivo
[13] = Intrinsic clearance in Beagle dog at 0.5 mg/kg, iv or 1 mg/kg, po; format: ADME, organism-based, Canis lupus familiaris; conditions: in vivo
cells = conditions: Homo sapiens, HeLa
Homo sapiens = organism: Homo sapiens; assay: Selectivity index, ratio of IC50 for Inhibition of N-terminal His6 tagged recombinant full-length human PI3Kalpha/human recombinant full length p85alpha expressed in baculovirus infected Sf21 cells to IC50 for Inhibition of N-terminal His6 tagged recombinant full-length human PI3Kdelta/human recombinant full length p85alpha expressed in baculovirus infected Sf21 cells
[14] = Oral bioavailability in Beagle dog at 1 mg/kg; format: ADME, organism-based, Canis lupus familiaris; conditions: in vivo
[15] = target: Voltage-gated inwardly rectifying potassium channel KCNH2 (Homo sapiens, UniProt Q12809); assay: Inhibition of human ERG
[16] = target: Sodium channel protein type 5 subunit alpha (Homo sapiens, UniProt Q14524); assay: Inhibition of Nav1.5 (unknown origin)
[17] = target: Voltage-dependent L-type calcium channel subunit alpha-1C (Homo sapiens, UniProt Q13936); assay: Inhibition of Cav1.2 (unknown origin)
Cytochrome P450 2C8 = target: T1, Cytochrome P450 2C8 (Homo sapiens, UniProt P10632); assay: Inhibition of CYP2C8 (unknown origin); format: ADME
T1 sequence (P10632 whole entry): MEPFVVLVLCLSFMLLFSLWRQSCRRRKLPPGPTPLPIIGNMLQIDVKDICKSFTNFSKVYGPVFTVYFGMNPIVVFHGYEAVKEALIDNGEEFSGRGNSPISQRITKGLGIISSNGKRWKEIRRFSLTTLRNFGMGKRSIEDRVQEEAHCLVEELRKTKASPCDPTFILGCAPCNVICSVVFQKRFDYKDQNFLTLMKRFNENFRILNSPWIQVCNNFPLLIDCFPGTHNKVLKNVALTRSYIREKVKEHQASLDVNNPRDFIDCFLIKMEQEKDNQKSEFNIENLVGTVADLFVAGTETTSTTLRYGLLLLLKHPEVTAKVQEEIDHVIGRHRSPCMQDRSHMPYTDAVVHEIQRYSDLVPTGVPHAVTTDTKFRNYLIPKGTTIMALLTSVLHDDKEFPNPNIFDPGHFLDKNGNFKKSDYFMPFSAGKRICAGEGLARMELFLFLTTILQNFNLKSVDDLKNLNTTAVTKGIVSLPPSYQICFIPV

Cytochrome P450 2C9 = Cytochrome P450 2C9 (Homo sapiens, UniProt P11712); assay: Inhibition of CYP2C9 (unknown origin); format: ADME
Cytochrome P450 2D6 = Cytochrome P450 2D6 (Homo sapiens, UniProt P10635); assay: Inhibition of CYP2D6 (unknown origin); format: ADME
Cytochrome P450 3A4 = Cytochrome P450 3A4 (Homo sapiens, UniProt P08684); assay: Inhibition of CYP3A4 (unknown origin); format: ADME
[18] = AUC in rat at 200 mg/kg; format: ADME, organism-based; parameters: dose 200 mg/kg; conditions: in vivo
[19] = AUC in rat at 100 mg/kg; format: ADME, organism-based; parameters: dose 100 mg/kg; conditions: in vivo

Sequence of Cytochrome P450 2C9 (P11712 whole entry): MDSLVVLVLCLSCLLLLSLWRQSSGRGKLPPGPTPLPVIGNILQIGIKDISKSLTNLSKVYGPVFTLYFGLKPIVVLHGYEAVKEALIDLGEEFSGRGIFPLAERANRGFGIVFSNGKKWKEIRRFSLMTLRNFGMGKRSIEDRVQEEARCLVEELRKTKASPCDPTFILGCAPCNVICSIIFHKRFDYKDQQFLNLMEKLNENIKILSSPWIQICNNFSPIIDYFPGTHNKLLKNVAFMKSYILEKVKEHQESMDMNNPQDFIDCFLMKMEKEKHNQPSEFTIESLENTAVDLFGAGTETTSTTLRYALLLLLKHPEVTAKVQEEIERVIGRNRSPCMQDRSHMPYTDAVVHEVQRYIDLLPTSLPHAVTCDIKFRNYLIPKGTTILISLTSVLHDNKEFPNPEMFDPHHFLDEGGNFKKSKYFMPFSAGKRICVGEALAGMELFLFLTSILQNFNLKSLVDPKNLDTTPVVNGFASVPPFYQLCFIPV
Sequence of Voltage-dependent L-type calcium channel subunit alpha-1C (Q13936 whole entry): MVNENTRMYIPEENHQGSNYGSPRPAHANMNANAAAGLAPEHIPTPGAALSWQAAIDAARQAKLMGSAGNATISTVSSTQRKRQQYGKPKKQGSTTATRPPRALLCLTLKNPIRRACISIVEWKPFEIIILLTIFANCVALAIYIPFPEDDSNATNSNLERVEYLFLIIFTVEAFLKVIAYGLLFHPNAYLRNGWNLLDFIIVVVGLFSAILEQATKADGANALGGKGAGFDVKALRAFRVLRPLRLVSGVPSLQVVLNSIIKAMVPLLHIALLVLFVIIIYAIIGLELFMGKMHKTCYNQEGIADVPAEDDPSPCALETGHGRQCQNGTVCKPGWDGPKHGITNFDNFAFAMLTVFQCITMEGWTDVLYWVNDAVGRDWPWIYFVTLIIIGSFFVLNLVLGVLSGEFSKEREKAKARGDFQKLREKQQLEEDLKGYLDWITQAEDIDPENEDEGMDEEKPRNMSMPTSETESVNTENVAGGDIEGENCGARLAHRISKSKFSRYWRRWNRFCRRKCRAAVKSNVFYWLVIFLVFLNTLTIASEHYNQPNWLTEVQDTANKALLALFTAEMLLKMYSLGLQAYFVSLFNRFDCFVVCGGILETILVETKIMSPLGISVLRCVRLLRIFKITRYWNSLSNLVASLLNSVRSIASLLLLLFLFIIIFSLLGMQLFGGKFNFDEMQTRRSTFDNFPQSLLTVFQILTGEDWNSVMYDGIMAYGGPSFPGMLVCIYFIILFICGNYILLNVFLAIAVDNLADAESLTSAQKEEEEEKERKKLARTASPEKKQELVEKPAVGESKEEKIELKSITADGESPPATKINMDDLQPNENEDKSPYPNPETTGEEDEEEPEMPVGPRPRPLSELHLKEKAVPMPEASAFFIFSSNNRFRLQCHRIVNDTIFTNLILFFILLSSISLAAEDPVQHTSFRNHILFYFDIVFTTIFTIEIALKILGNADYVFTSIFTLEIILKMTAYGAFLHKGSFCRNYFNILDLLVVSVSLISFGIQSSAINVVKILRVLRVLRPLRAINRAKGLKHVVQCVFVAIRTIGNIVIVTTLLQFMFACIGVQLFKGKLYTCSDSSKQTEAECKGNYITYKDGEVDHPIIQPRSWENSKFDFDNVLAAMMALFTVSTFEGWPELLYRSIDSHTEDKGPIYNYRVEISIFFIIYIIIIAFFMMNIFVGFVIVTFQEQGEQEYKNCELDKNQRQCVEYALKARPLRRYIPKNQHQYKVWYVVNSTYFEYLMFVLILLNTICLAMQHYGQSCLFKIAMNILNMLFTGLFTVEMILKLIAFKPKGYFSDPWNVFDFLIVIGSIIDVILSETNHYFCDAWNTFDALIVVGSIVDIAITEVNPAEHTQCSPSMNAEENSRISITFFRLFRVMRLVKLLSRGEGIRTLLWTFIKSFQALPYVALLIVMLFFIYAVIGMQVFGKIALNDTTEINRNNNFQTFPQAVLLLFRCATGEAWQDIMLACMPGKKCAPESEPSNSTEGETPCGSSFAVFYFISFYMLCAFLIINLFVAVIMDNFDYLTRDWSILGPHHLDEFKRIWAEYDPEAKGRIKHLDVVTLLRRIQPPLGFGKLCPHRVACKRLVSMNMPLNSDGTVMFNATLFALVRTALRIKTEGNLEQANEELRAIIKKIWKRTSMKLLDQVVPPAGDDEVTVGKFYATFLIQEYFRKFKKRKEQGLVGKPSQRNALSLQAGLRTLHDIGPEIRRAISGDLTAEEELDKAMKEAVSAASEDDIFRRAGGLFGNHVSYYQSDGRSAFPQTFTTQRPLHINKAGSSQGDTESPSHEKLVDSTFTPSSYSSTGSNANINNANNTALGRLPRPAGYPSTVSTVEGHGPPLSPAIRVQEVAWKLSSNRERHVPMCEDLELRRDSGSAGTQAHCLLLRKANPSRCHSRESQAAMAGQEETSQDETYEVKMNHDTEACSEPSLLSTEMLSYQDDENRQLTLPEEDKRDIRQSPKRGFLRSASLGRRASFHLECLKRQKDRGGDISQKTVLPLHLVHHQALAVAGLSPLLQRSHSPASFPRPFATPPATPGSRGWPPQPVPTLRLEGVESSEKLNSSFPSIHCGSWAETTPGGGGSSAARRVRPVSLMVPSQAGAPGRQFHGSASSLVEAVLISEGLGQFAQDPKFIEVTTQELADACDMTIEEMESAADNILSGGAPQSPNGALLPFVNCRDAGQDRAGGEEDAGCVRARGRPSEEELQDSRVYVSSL
Sequence of Voltage-gated inwardly rectifying potassium channel KCNH2 (Q12809 whole entry): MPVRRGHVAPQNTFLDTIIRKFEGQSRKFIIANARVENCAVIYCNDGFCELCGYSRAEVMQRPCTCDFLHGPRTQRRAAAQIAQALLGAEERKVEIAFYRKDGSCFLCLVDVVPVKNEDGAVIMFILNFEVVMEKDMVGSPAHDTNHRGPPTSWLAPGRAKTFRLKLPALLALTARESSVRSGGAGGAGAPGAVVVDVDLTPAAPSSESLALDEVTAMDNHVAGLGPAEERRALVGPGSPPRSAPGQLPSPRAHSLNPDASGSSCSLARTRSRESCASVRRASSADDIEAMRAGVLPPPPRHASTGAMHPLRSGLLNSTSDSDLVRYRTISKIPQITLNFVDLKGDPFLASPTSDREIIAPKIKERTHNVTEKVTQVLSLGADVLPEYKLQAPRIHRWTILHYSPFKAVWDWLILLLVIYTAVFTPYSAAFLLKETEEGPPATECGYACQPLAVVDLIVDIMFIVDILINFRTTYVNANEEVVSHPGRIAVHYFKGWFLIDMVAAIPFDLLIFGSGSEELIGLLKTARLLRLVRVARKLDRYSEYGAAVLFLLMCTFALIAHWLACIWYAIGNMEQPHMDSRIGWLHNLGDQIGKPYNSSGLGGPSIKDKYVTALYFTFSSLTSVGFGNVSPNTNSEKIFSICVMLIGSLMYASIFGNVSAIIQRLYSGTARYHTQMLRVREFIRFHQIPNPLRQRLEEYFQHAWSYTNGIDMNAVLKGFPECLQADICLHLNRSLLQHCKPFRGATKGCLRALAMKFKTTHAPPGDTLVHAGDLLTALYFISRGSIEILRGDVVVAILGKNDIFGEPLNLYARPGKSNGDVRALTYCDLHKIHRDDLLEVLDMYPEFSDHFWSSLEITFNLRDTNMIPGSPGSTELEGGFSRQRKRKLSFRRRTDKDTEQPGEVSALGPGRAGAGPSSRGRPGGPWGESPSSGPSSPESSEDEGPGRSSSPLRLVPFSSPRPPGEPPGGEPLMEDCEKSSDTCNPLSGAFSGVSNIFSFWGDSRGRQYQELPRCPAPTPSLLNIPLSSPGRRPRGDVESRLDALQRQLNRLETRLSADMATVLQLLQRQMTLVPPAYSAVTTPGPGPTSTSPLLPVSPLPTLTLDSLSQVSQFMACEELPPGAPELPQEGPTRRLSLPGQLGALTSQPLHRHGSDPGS
Sequence of Cytochrome P450 3A4 (P08684 whole entry): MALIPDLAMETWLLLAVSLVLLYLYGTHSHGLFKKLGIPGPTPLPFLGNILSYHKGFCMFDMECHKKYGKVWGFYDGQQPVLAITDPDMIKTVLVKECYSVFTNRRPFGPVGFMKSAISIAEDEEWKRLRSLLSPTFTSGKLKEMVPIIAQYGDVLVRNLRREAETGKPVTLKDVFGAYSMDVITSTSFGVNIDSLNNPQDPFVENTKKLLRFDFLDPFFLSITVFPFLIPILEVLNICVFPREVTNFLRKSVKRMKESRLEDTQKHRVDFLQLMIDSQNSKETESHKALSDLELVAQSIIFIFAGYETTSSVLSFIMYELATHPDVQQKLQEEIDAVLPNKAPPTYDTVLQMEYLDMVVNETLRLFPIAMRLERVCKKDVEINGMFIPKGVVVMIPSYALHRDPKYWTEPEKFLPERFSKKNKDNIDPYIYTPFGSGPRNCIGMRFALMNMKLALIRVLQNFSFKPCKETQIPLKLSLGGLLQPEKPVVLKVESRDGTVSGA
Sequence of Cytochrome P450 2D6 (P10635 whole entry): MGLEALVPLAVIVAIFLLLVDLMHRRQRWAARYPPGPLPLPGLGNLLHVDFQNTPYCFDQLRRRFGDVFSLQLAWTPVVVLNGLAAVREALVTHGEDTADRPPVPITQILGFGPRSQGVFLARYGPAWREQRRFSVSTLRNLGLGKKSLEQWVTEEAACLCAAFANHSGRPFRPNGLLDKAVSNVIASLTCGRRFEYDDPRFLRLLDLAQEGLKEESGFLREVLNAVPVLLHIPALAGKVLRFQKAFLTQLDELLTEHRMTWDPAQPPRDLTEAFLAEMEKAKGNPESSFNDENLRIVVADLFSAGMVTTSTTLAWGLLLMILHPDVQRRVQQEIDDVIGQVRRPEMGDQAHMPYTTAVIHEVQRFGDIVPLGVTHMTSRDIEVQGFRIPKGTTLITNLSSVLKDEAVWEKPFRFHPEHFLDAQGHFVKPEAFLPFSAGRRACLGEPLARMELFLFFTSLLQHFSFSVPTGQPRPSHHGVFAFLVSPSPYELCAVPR

Row | Structure (SMILES) | half-life [1] [h] | half-life [2] [h] | Papp [3] [×10⁻⁶ cm/s] | solubility [4] [µM] | clearance [5] [mL/min/kg] | CL [6] [mL/min/kg] | Vd [7] [L/kg] | Vdu [8] [L/kg] | bioavailability [9] [%] | clearance [10] [mL/min/kg] | Vd [11] [L/kg] | Vdu [12] [L/kg] | CL [13] [mL/min/kg] | IC50 (cells) [µM] | bioavailability [14] [%] | other results
1 | CCn1c(-c2cnc(C)nc2)nc2c(-c3ccc4c(c3)[C@](C)(N[C@H]3CCOC3)C(=O)N4)ncnc21 | 1.4 | 1.6 | 14 | 180 (≈ 84.7 µg/mL) | 44 | 160 | 3.7 | 6.5 | 14 | 32 | 4.2 | 6.5 |  |  |  | 
2 | Cc1ncc(-c2nc3c(-c4ccc5c(c4)[C@@]4(CCCN4C(=O)C4CC4)C(=O)N5)ncnc3n2C)cn1 | 0.6 | 1.3 | 9 | 130 (≈ 62.5 µg/mL) | 49 | 290 | 1.9 | 4.6 |  | 9.6 | 1.4 | 2.7 | 27 | 10 |  | 
3 | CCn1ncc(-c2nc3c(-c4ccc5c(c4)[C@](C)(CC4CC4)C(=O)N5)ncnc3n2C)c1C |  |  |  |  |  |  |  |  |  |  |  |  |  | 0.017 |  | 
4 | CCn1ncc(-c2nc3c(N4CCC(n5c(=O)[nH]c6ncccc65)CC4)ncnc3n2C)c1C |  |  |  |  |  |  |  |  |  |  |  |  |  |  |  | Ratio IC50 (Homo sapiens): 71
5 | CCn1c(-c2cnc(C)nc2)nc2c(-c3cnc4c(c3)[C@](C)(N3CC(C)(OC)C3)C(=O)N4)ncnc21 | 2.8 | 2 | 24 | 160 (≈ 77.7 µg/mL) | 8.1 | 18 | 1.7 | 3.3 |  | 7.4 | 1.3 | 2.1 | 16 |  |  | 
6 | CCn1c(-c2cnc(C)nc2)nc2c(-c3ccc4c(c3)[C@](C)(NCC(C)(C)F)C(=O)N4)ncnc21 | 1.6 | 1.4 | 27 | 130 (≈ 61.7 µg/mL) | 28 | 89 | 3 | 6.3 | 58 | 39 | 2.9 | 8.7 |  |  | 25 | 
7 | CCn1c(-c2cnc(C)nc2)nc2c(-c3cnc4c(c3)[C@](C)(NC3CCC3)C(=O)N4)ncnc21 | 3 |  | 25 | 140 (≈ 63.8 µg/mL) |  |  | 2.1 | 3.1 |  |  |  |  |  |  |  | 
8 | CCn1c(-c2cnc(C)nc2)nc2c(-c3ccc4c(c3)[C@@]3(CCCN3C(=O)C3CC3)C(=O)N4C)ncnc21 | 1.1 | 3 | 32 | 130 (≈ 66.1 µg/mL) |  |  | 0.7 | 3.8 | 57 |  | 0.5 | 1 |  | 8.5 | 99 | 
9 | CCn1c(-c2cnc(C)nc2)nc2c(-c3ccc4c(c3)[C@](C)(NCC(C)(F)F)C(=O)N4)ncnc21 | 1.9 | 1.1 |  | 120 (≈ 57.4 µg/mL) |  |  | 3.3 | 6.9 |  |  | 1.7 | 3.9 |  |  |  | 
10 | CCn1c(-c2cnc(C)nc2)nc2c(-c3ccc4c(c3)[C@@]3(CCCN3C(=O)C3CC3)C(=O)N4)ncnc21 | 0.5 | 0.5 | 10 | 34 (≈ 16.8 µg/mL) |  |  | 1.9 | 5.5 | 10 |  | 1.5 | 3.8 |  |  | 78 | 
11 | Cc1ncc(-c2nc3c(-c4cnc5c(c4)[C@](C)(N[C@H]4CCOC4)C(=O)N5)ncnc3n2C)cn1 | 1.1 | 2 |  | 140 (≈ 64 µg/mL) | 58 | 240 | 2.4 | 3.1 |  | 1.9 | 0.2 | 0.3 | 3 | 8.2 |  | 
12 | Cc1ncc(-c2nc3c(-c4ccc5c(c4)[C@@]4(CCCN4C(=O)C4CC4)C(=O)N5C)ncnc3n2C)cn1 | 1.4 | 2 | 31 | 140 (≈ 69.2 µg/mL) | 22 | 130 | 1.4 | 6.1 | 100 | 6.1 | 0.8 | 1.5 | 14 | 9.1 | 82 | IC50 [15]: > 30 µM; IC50 [16]: > 30 µM; IC50 [17]: > 30 µM; IC50 (Cytochrome P450 2C8): > 50 µM; IC50 (Cytochrome P450 2C9): > 50 µM; IC50 (Cytochrome P450 2D6): > 50 µM; IC50 (Cytochrome P450 3A4): > 50 µM; AUC [18]: 490 µM·h
13 | CCn1c(-c2cnc(C)nc2)nc2c(-c3ccc4c(c3)[C@@]3(CCCN3C(C)C)C(=O)N4)ncnc21 | 0.6 | 1 |  | 56 (≈ 26.2 µg/mL) |  |  | 3.1 | 14 |  |  | 2.2 | 11 |  |  |  | 
14 | CCn1c(-c2cnc(C)nc2)nc2c(-c3cnc4c(c3)[C@](C)(N[C@H]3CCOC3)C(=O)N4)ncnc21 | 3 | 3.4 | 5.7 | 150 (≈ 70.7 µg/mL) |  |  | 3.8 | 4.9 | 33 |  | 1.2 | 1.6 |  | > 10 | 91 | 
15 | CCn1c(-c2cnc(C)nc2)nc2c(-c3ccc4c(c3)[C@](C)(NC3CCC3)C(=O)N4)ncnc21 | 0.6 |  | 30 | 130 (≈ 59.1 µg/mL) | 66 | 930 | 2.4 | 7.3 |  |  |  |  |  |  |  | 
16 | CCn1c(-c2cnc(C)nc2)nc2c(-c3cnc4c(c3)[C@](C)(NCC(C)(C)F)C(=O)N4)ncnc21 | 2.5 | 9.3 | 24 | 115 (≈ 54.7 µg/mL) | 12 | 29 | 2.4 | 5 | 61 | 2.5 | 1.4 | 3.3 | 6 |  | 100 | AUC [19]: 390 µM·h
17 | Cn1cnc2c(-c3ccc4c(c3)[C@](C)(CC3CC3)C(=O)N4)ncnc21 |  |  |  |  |  |  |  |  |  |  |  |  |  | 3.1 |  | 
18 | CCn1c(-c2cnc(C)nc2)nc2c(-c3ccc4c(c3)[C@](C)(CC3CCO3)C(=O)N4)ncnc21 (stereo not given in full) | 1 | 1 |  |  | 27 | 99 | 2.4 | 6 |  | 24 | 1.7 | 3.5 | 250 |  |  | 
19 | CCn1c(-c2cnc(C)nc2)nc2c(-c3ccc4c(c3)[C@](C)(N3CC(C)(OC)C3)C(=O)N4)ncnc21 | 0.6 | 1.8 | 27 | 120 (≈ 58.1 µg/mL) |  |  | 1.9 | 6.3 | 28 |  | 2.8 | 6.5 |  |  |  | 
